Patent US11925629B2, “Heterocyclic inhibitors of ERK1 and ERK2 and their use in the treatment of cancer” (Asana Biosciences, LLC, priority 2015, dated 2024)

tested on: HCT116 (colorectal carcinoma, K Ras G13D) cells; assay: Cell proliferation (Alamar Blue) assay, HCT116; format: cell-based, human; conditions: HCT116 cells
Procedure: (§1) Cell Proliferation (Alamar Blue) Assay
(§2) HT-29 (colorectal carcinoma, B-RafV600E), HCT116 (colorectal carcinoma, K Ras G13D), A375 (melanoma, B-RafV600E) and SK-Mel2 (melanoma, NRAS Q61R) cells (obtained from ATCC, USA) were seeded (5000 cells/well) in 96-well tissue culture plate and incubated at 37° C./5% CO2 for 16-24 hours. The cells were then treated with compounds, at concentrations typically from 0.0005 to 10 uM prepared in 3-fold serial dilutions. The plates were then incubated for 72 h at 37° C./5% CO2 in a moist environment. Then Alamar Blue™ reagent (final concentration 1×) was added to each well and incubated for 1-3 h at 37° C./5% CO2. The plates were read on fluorescence reader at 540 nm excitation and 590 nm emission wavelengths. The IC50 values were subsequently determined using a sigmoidal dose-response curve (variable slope) using GraphPad Prism® 5 software.

| Compound | IC50 |
| --- | --- |
| Cc1cnc(NC2CCOCC2)nc1-n1cnc(C(=O)NC(CN)c2ccc(Cl)s2)c1 (single isomer, unassigned; enantiomer #1) [Example 290, N-(2-amino-1-(5-chlorothiophen-2-yl)ethyl)-1-(5-methyl-2-((tetrahydro-2H-pyran-4-yl)amino)pyrimidin-4-yl)-1H-imidazole-4-carboxamide (enantiomer #1)] | ≤ 100 nM |
| Cc1cnc(NC2CCOCC2)nc1-n1cnc(C(=O)NC(CN)c2ccc(Cl)s2)c1 (stereo not drawn) [Example 274, N-(2-amino-1-(5-chlorothiophen-2-yl)ethyl)-1-(5-methyl-2-((tetrahydro-2H-pyran-4-yl)amino)pyrimidin-4-yl)-1H-imidazole-4-carboxamide] | ≤ 100 nM |

same assay, conditions: Homo sapiens, HCT-116, HCT116 cells

| Compound | IC50 |
| --- | --- |
| O=C(Nc1cnn(-c2ccnc(Nc3ccc(F)cc3Cl)n2)c1)N[C@H](CO)c1cccc(Cl)c1 [Cmpd 20, (S)-1-(1-(2-((2-chloro-4-fluoro-phenyl)amino)pyrimidin-4-yl)-1H-pyrazol-4-yl)-3-(1-(3-chloro-phenyl)-2-hydroxyethyl) urea] | > 2500 nM |
| O=C(Nc1cnn(-c2ccnc(Nc3ccccc3Cl)n2)c1)N[C@H](CO)c1cccc(Cl)c1 [Example 1, (S)-1-(1-(3-chlorophenyl)-2-hydroxyethyl)-3-(1-(2-((2-chloro-phenyl)amino)pyrimidin-4-yl)-1H-pyrazol-4-yl) urea] | > 2500 nM |
| O=C(Nc1cnn(-c2ccnc(N[C@H]3CC[C@H](O)CC3)n2)c1)N[C@H](CO)c1cccc(Cl)c1 [Example 14, 1-((S)-1-(3-chlorophenyl)-2-hydroxy-ethyl)-3-(1-(2-((trans-4-hydroxycyclo-hexyl)amino)pyrimidin-4-yl)-1H-pyrazol-4-yl)urea] | > 2500 nM |
| COc1cc(N2CCN(C(C)=O)CC2)ccc1Nc1nccc(-n2cc(NC(=O)N[C@H](CO)c3cccc(Cl)c3)cn2)n1 [Example 15, (S)-1-(1-(2-((4-(4-acetyl-piperazin-1-yl)-2-methoxy-phenyl)amino)pyrimidin-4-yl)-1H-pyrazol-4-yl)-3-(1-(3-chloro-phenyl)-2-hydroxyethyl) urea] | > 2500 nM |
| O=C(Nc1cnn(-c2ccnc(NC3CC3)n2)c1)NC(CO)c1cccc(Cl)c1 (stereo not drawn) [Example 16, 1-(1-(3-chlorophenyl)-2-hydroxy-ethyl)-3-(1-(2-(cyclo-propylamino)pyrimidin-4-yl)-1H-pyrazol-4-yl)urea] | > 2500 nM |
| O=C(Nc1cnn(-c2ccnc(Nc3ccccc3)c2)c1)NC(CO)c1cccc(Cl)c1 (stereo not drawn) [Example 33, 1-(1-(3-chlorophenyl)-2-hydroxy-ethyl)-3-(1-(2-(phenyl-amino)-pyridin-4-yl)-1H-pyrazol-4-yl)urea] | > 2500 nM |
| Cc1cnc(Nc2ccc(F)cc2Cl)nc1-n1cc(C(=O)N[C@H](CO)c2cccc(Cl)c2)cn1 [Example 35, (S)-1-(2-((2-chloro-4-fluoro-phenyl)amino)-5-methyl-pyrimidin-4-yl)-N-(1-(3-chloro-phenyl)-2-hydroxy-ethyl)-1H-pyrazole-4-carboxamide] | > 2500 nM |
| Cc1cnc(Nc2ccc(F)cc2Cl)nc1-n1cc(NC(=O)NC(CO)c2cccc(Cl)c2)cn1 (stereo not drawn) [Example 36, 1-(1-(2-((2-chloro-4-fluorophenyl)-amino)-5-methyl-pyrimidin-4-yl)-1H-pyrazol-4-yl)-3-(1-(3-chlorophenyl)-2-hydroxy-ethyl)urea] | > 2500 nM |
| O=C(N[C@H](CO)c1cccc(Cl)c1)c1ccn(-c2ccnc(Nc3ccc(F)cc3Cl)n2)c1 [Example 112, (S)-1-(2-((2-chloro-4-fluorophenyl)-amino)pyrimidin-4-yl)-N-(1-(3-chlorophenyl)-2-hydroxy-ethyl)-1H-pyrrole-3-carboxamide] | > 2500 nM |

tested on: HT-29 (colorectal carcinoma, B-RafV600E) cells; assay: Cell proliferation (Alamar Blue) assay, HT-29; format: cell-based, human; conditions: HT29 cells
Procedure: as §1, §2

| Compound | IC50 |
| --- | --- |
| Cc1cnc(Nc2ccc(F)cc2)cc1-n1cnc(C(=O)NC(CN)c2ccccc2)c1 (single isomer, unassigned; enantiomer #1) [Example 227, N-(2-amino-1-phenylethyl)-1-(2-((4-fluorophenyl)amino)-5-methylpyridin-4-yl)-1H-imidazole-4-carboxamide, Enantiomer #1] | 100 to 250 nM |
